For series [1] the following is noted: for viscosity: 101.33 kPa, Liquid.
Series [2] is described as follows: molar heat capacity at constant pressure. The following applies: 101.33 kPa, Liquid, Large sample (1 g) DSC.

Numbers after ± are expanded uncertainties.

In the case of `CCCCCC[n+]1ccc(N(C)C)c(C)c1.[Br-]` [4-(dimethylamino)-1-hexyl-3-methylpyridinium bromide], the Triple point temperature in series [1] (Crystal) is recorded as 392 ± 3 K. Besides, the Glass transition temperature in series [1] is -2 ± 4 °C.
For `CCCCCC[n+]1ccccc1.O=S(=O)([N-]S(=O)(=O)C(F)(F)F)C(F)(F)F` [1-hexylpyridinium bis(trifluromethylsulfonyl)imide], the viscosity (commonly the internal friction of a fluid under shear) in series [1] (283 K) was found to be 189 ± 14 mPa·s; in series [1] (293 K), 106 ± 7 mPa·s; in series [1] (298 K), 80 ± 5 mPa·s; in series [1] (303 K), 64 ± 3 mPa·s; in series [1] (313 K) it was 42 ± 2 mPa·s; in series [1] (323 K), 29 ± 2 mPa·s. Moreover, the viscosity is given as 21 ± 1 mPa·s in series [1] (333 K) and 16 ± 1 mPa·s in series [1] (343 K). Besides, the Triple point temperature in series [1] (Crystal) was 273 ± 3 K. Besides, the Glass transition temperature in series [1] is -77 ± 4 °C. In addition, the “molar heat capacity at constant pressure” value is 612 ± 62 J/K/mol in series [2] (298 K) and 632 ± 64 J/K/mol in series [2] (323 K).
On to `CCOC(=O)c1ccc[n+](CC)c1.CCOS(=O)(=O)[O-]` [3-(ethoxycarbonyl)-1-ethylpyridinium ethylsulfate], for which the viscosity in series [1] (283 K) was found to be 19610 ± 4800 mPa·s; in series [1] (293 K), 5675 ± 1200 mPa·s; in series [1] (298 K), 3173 ± 570 mPa·s; in series [1] (303 K), 1986 ± 310 mPa·s; in series [1] (313 K), 846 ± 110 mPa·s; in series [1] (323 K), 405 ± 40 mPa·s. Moreover, the results for the viscosity in series [1] (333 K) and in series [1] (343 K) were 221 ± 17 mPa·s and 130 ± 9 mPa·s, respectively. For the same molecule, in series [1], the Glass transition temperature is -44 ± 3 °C. For the same molecule, the “molar heat capacity at constant pressure” value in series [2] (298 K) stood at 513 ± 52 J/K/mol; in series [2] (323 K) it was 530 ± 54 J/K/mol.
Turning to `CCCCCCn1cc[n+](C)c1.[Br-]` [3-hexyl-1-methyl-1H-imidazolium bromide], the Glass transition temperature in series [1] was -49 ± 4 °C. Further, the “molar heat capacity at constant pressure” value in series [2] (298 K) turned out to be 344 ± 35 J/K/mol; in series [2] (323 K), 357 ± 36 J/K/mol.
For the molecule `CCCCCC[n+]1ccn(C)c1.O=S(=O)([N-]S(=O)(=O)C(F)(F)F)C(F)(F)F`, the viscosity was 148 ± 10 mPa·s in series [1] (283 K); 86 ± 5 mPa·s in series [1] (293 K); 68 ± 4 mPa·s in series [1] (298 K); 55 ± 3 mPa·s in series [1] (303 K); 37 ± 2 mPa·s in series [1] (313 K); 26 ± 1 mPa·s in series [1] (323 K). Moreover, the viscosity came to 19 ± 1 mPa·s in series [1] (333 K) and 15 ± 1 mPa·s in series [1] (343 K). The Glass transition temperature in series [1] was -84 ± 4 °C. Also, in series [1] (Metastable crystal), the Triple point temperature was found to be 266 ± 3 K. Further, the figures for the “molar heat capacity at constant pressure” value in series [2] (298 K) and in series [2] (323 K) were 583 ± 59 J/K/mol and 604 ± 61 J/K/mol, respectively.
Take `CCCC[n+]1cccc(C)c1.O=S(=O)([N-]S(=O)(=O)C(F)(F)F)C(F)(F)F`: the viscosity worked out at 138 ± 8 mPa·s in series [1] (283 K); 80 ± 4 mPa·s in series [1] (293 K); 63 ± 3 mPa·s in series [1] (298 K); 51 ± 2 mPa·s in series [1] (303 K); 34 ± 2 mPa·s in series [1] (313 K); 24 ± 1 mPa·s in series [1] (323 K). The figures for the viscosity in series [1] (333 K) and in series [1] (343 K) were 18 ± 1 mPa·s and 14 ± 1 mPa·s, respectively. Besides, the Glass transition temperature in series [1] was -84 ± 4 °C. Also, the “molar heat capacity at constant pressure” value in series [2] (298 K) is given as 622 ± 63 J/K/mol; in series [2] (323 K), 641 ± 65 J/K/mol.
On to `CCCCCC[n+]1cccc(C)c1.[Br-]` [1-hexyl-3-methylpyridinium bromide], for which the Glass transition temperature in series [1] was -37 ± 4 °C. The figures for the “molar heat capacity at constant pressure” value in series [2] (298 K) and in series [2] (323 K) were 343 ± 35 J/K/mol and 358 ± 36 J/K/mol, respectively.
As to `CCCCCCn1cc[n+](C)c1C.O=S(=O)([N-]S(=O)(=O)C(F)(F)F)C(F)(F)F`, the viscosity in series [1] (283 K) was 317 ± 27 mPa·s; in series [1] (293 K), 171 ± 13 mPa·s; in series [1] (298 K), 131 ± 9 mPa·s; in series [1] (303 K) it was 101 ± 6 mPa·s; in series [1] (313 K) it was 63 ± 3 mPa·s; in series [1] (323 K), 42 ± 2 mPa·s. Moreover, the viscosity in series [1] (333 K) was determined as 30 ± 2 mPa·s; in series [1] (343 K) it was 22 ± 1 mPa·s. Besides, the Triple point temperature in series [1] (Crystal) was determined as 268 ± 3 K. In addition, in series [1], the Glass transition temperature was -74 ± 4 °C. Further, the “molar heat capacity at constant pressure” value came to 686 ± 69 J/K/mol in series [2] (298 K) and 705 ± 71 J/K/mol in series [2] (323 K).
As for `CCCCCCCCn1cc[n+](C)c1.O=S(=O)([N-]S(=O)(=O)C(F)(F)F)C(F)(F)F`, in series [1], the Glass transition temperature was -84 ± 4 °C. The “molar heat capacity at constant pressure” value in series [2] (298 K) is 654 ± 66 J/K/mol; in series [2] (323 K), 677 ± 68 J/K/mol.
As to `CCCCCC[n+]1ccc(N(C)C)cc1.[Br-]` [4-(dimethylamino)-1-hexylpyridinium bromide], the Triple point temperature in series [1] (Crystal) came to 469 ± 3 K.
As for `CCOS(=O)(=O)[O-].CC[n+]1cccc(C)c1` [1-ethyl-3-methylpyridinium ethylsulfate], the viscosity in series [1] (283 K) came out at 414 ± 39 mPa·s; in series [1] (293 K), 204 ± 17 mPa·s; in series [1] (298 K) it was 150 ± 10 mPa·s; in series [1] (303 K), 114 ± 7 mPa·s; in series [1] (313 K), 70 ± 4 mPa·s; in series [1] (323 K), 45 ± 2 mPa·s. The results for the viscosity in series [1] (333 K) and in series [1] (343 K) were 32 ± 2 mPa·s and 23 ± 1 mPa·s, respectively. Besides, the Glass transition temperature in series [1] was -71 ± 3 °C. The “molar heat capacity at constant pressure” value in series [2] (298 K) turned out to be 389 ± 39 J/K/mol; in series [2] (323 K), 402 ± 41 J/K/mol.
Take `CCCC[n+]1ccc(N(C)C)cc1.[Br-]` [1-butyl-4-(dimethylamino)pyridinium bromide]: in series [1] (Crystal), the Triple point temperature is given as 495 ± 3 K.
With `CCCCCCCC[n+]1ccn(C)c1.F[B-](F)(F)F` [1-methyl-3-octylimidazolium tetrafluoroborate], in series [1], the Glass transition temperature was -81 ± 4 °C. Further, the “molar heat capacity at constant pressure” value in series [2] (298 K) is on record as 506 ± 51 J/K/mol; in series [2] (323 K), 526 ± 53 J/K/mol.
On to `CCCCCC[n+]1cccc(C)c1.O=S(=O)([N-]S(=O)(=O)C(F)(F)F)C(F)(F)F`, for which the viscosity came to 197 ± 14 mPa·s in series [1] (283 K); 110 ± 7 mPa·s in series [1] (293 K); 85 ± 5 mPa·s in series [1] (298 K); 67 ± 4 mPa·s in series [1] (303 K); 44 ± 2 mPa·s in series [1] (313 K); 30 ± 2 mPa·s in series [1] (323 K). Also, the viscosity in series [1] (333 K) was found to be 22 ± 1 mPa·s; in series [1] (343 K), 16 ± 1 mPa·s. Also, the Glass transition temperature in series [1] is -82 ± 4 °C. In addition, the “molar heat capacity at constant pressure” value in series [2] (298 K) is given as 624 ± 63 J/K/mol; in series [2] (323 K), 644 ± 65 J/K/mol.
On to `CCn1cc[n+](C)c1.O=S(=O)([N-]S(=O)(=O)C(F)(F)F)C(F)(F)F`, for which the viscosity in series [1] (283 K) is 52 ± 3 mPa·s; in series [1] (293 K), 36 ± 2 mPa·s; in series [1] (298 K), 32 ± 2 mPa·s; in series [1] (303 K), 26 ± 1 mPa·s; in series [1] (313 K) it was 19 ± 1 mPa·s; in series [1] (323 K), 15 ± 1 mPa·s. Moreover, the viscosity in series [1] (333 K) was 12 ± 1 mPa·s; in series [1] (343 K), 9 ± 1 mPa·s.
As for `CCCC[n+]1ccccc1.[Br-]` [1-butylpyridinium bromide], the Triple point temperature in series [1] (Crystal) was 378 ± 3 K.
For `CCCC[n+]1cccc(C)c1.[Br-]` [1-butyl-3-methylpyridinium bromide], the Glass transition temperature in series [1] is -36 ± 4 °C.
Turning to `CC(=O)[O-].CCCCn1cc[n+](C)c1` [1-butyl-3-methylimidazolium acetate], the viscosity is reported as 1630 ± 240 mPa·s in series [1] (283 K); 646 ± 80 mPa·s in series [1] (293 K); 440 ± 44 mPa·s in series [1] (298 K); 309 ± 27 mPa·s in series [1] (303 K); 165 ± 12 mPa·s in series [1] (313 K); 97 ± 6 mPa·s in series [1] (323 K). The viscosity came to 62 ± 3 mPa·s in series [1] (333 K) and 42 ± 2 mPa·s in series [1] (343 K).
On to `CCCC[n+]1cc(C)cc(C)c1.[Br-]` [1-butyl-3,5-dimethylpyridinium bromide], for which the Triple point temperature in series [1] (Crystal) is reported as 368 ± 3 K. For the same molecule, the Glass transition temperature in series [1] is -24 ± 4 °C.
For `CCCCCCCCn1cc[n+](C)c1.[Br-]` [1-methyl-3-octylimidazolium bromide], the results for the “molar heat capacity at constant pressure” value in series [2] (298 K) and in series [2] (323 K) were 392 ± 40 J/K/mol and 408 ± 41 J/K/mol, respectively.
As to `CCCCn1cc[n+](C)c1.O=C([O-])C(F)(F)F` [1-butyl-3-methylimidazolium trifluoroacetate], the viscosity in series [1] (283 K) is 155 ± 10 mPa·s; in series [1] (293 K) it was 89 ± 5 mPa·s; in series [1] (298 K) it was 70 ± 4 mPa·s; in series [1] (303 K) it was 53 ± 3 mPa·s; in series [1] (313 K) it was 37 ± 2 mPa·s; in series [1] (323 K), 26 ± 1 mPa·s. The viscosity in series [1] (333 K) is recorded as 19 ± 1 mPa·s; in series [1] (343 K) it was 15 ± 1 mPa·s.
As for `CCOS(=O)(=O)[O-].CC[n+]1ccccc1` [1-ethylpyridinium ethyl sulfate], the viscosity in series [1] (283 K) is on record as 356 ± 32 mPa·s; in series [1] (293 K) it was 183 ± 14 mPa·s; in series [1] (298 K), 137 ± 9 mPa·s; in series [1] (303 K), 105 ± 6 mPa·s; in series [1] (313 K), 66 ± 4 mPa·s; in series [1] (323 K), 43 ± 2 mPa·s. Also, the results for the viscosity in series [1] (333 K) and in series [1] (343 K) were 31 ± 2 mPa·s and 23 ± 1 mPa·s, respectively.
Regarding `CCCCCC[n+]1ccc(N2CCC(C)CC2)cc1.[Br-]` [1-hexyl-4-(4-methyl-1-piperidinyl)pyridinium bromide], in series [1], the Glass transition temperature was found to be 33 ± 4 °C.

The values above are taken from the NIST ThermoML archive (doi:10.1016/j.jct.2005.03.013).
